Marks after values point to notes of the source that are not given here. One block for each molecule: values may come before it.
Key:
Type in all cases: cell-based
[1] = system: Salmonella choleraesuis ATCC 9184; experiment: Agar incorporation test CG128e (Example 11); settings: 24 hours at 37° C.
Experimental: (§1) [table] 0.3 ml of each dilution step is mixed with 15 ml of nutrient medium while the latter is still liquid. After the nutrient medium has solidified, 10 μl of each of the following organism dilutions of the test strains in 0.85% NaCl solution are spotted onto the agar medium: [table] The plates are incubated at 37° C. for 24 hours (A. niger at 28° C. for 3 days) and then the highest dilution (lowest concentration) of the test substance at which growth is just no longer discernible (corresponds to the MIC) is determined.

[2] = system: Corynebacterium xerosis* ATCC 373; experiment: Agar incorporation test CG128e (Example 11); settings: 24 hours at 37° C.; organism marked *
Experimental: as §1

[3] = system: Escherichia coli NCTC 8196; experiment: Agar incorporation test CG128e (Example 11); settings: 24 hours at 37° C.
Experimental: as §1

[4] = system: Propionibacterium acnes (*) ATCC 6919; experiment: Agar incorporation test CG128e (Example 11); settings: 24 hours at 37° C.; organism marked *
Experimental: as §1

[5] = system: Staphylococcus aureus ATCC 6538; experiment: Agar incorporation test CG128e (Example 11); settings: 24 hours at 37° C.
Experimental: as §1

[6] = system: C. minutissimum ATCC 23348; experiment: Agar incorporation test CG128e (Example 11); settings: 24 hours at 37° C.
Experimental: as §1

[7] = system: Candida albicans ATCC 10231; experiment: Agar incorporation test CG128e (Example 11); settings: 24 hours at 37° C.
Experimental: as §1

[8] = system: Pseudomonas aeruginosa ATCC 15442; experiment: Agar incorporation test CG128e (Example 11); settings: 24 hours at 37° C.
Experimental: as §1

[9] = system: Staphylococcus epidermidis ATCC 12228; experiment: Agar incorporation test CG128e (Example 11); settings: 24 hours at 37° C.
Experimental: as §1

[10] = system: Klebsiella pneumoniae ATCC 4352; experiment: Agar incorporation test CG128e (Example 11); settings: 24 hours at 37° C.
Experimental: as §1

[11] = system: Aspergillus niger ATCC 6275; experiment: Agar incorporation test CG128e (Example 11); settings: 28° C. for 3 days
Experimental: as §1

[12] = system: Staphylococcus aureus ATCC 9144; experiment: Agar incorporation test CG128e (Example 11); settings: 24 hours at 37° C.
Experimental: as §1

[13] = system: Escherichia coli ATCC 10536; experiment: Agar incorporation test CG128e (Example 11); settings: 24 hours at 37° C.
Experimental: as §1

[14] = system: Proteus vulgaris ATCC 6896; experiment: Agar incorporation test CG128e (Example 11); settings: 24 hours at 37° C.
Experimental: as §1

[15] = system: Actynomyces viscosus ATCC 43146; experiment: "Microbicidal Activity" suspension test CG 161/EN1040 (Example 12); settings: A. viscosus
Experimental: (§2) Bacteria are incubated overnight in CASO broth and adjusted to an organism count of 1-5×10^5 CFU/ml using 0.85% sodium chloride solution. The test substances are pre-pipetted into microtitre plates in amounts of 8 μl per well. The adjusted test organism suspensions are added in amounts of 192 μl per well to the test substances and mixed. After defined contact times, the test batches are mixed, an aliquot is withdrawn and diluted in several steps in a dilution series of 1:10 in a suitable inactivation medium. The test plates are incubated for 24 hours at 37° C. After incubation, the growth is determined on the basis of the turbidity of the test batches (optical density) at 620 nm in a microplate reader. […] One microtitre plate is used for each test organism. All the substances are tested in duplicate.

[16] = system: Staphylococcus aureus ATCC 6538; experiment: as above; settings: S. aureus
Experimental: as §2

[17] = system: Escherichia coli ATCC 10536; experiment: as above; settings: E. coli
Experimental: as §2

[18] = system: Pseudomonas aeruginosa CIP A-22 (=PA); experiment: MIC in microtitre plates (Example 10); parameters: unit not given here; settings: microtitre plate, 48 hours at 37° C., ≦20% growth
Method in brief: (§3)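 DMSO-dissolved compounds tested in 1:2 serial dilution against overnight CASO broth cultures, inoculum adjusted to 1-5×10^6 CFU/ml then diluted 1:100 in CASO. Incubated 48 hours at 37° C; turbidity read at 620 nm. MIC = lowest concentration giving ≦20% growth versus control; duplicates.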

[19] = system: Candida albicans ATCC 10231 (=CA); experiment: MIC in microtitre plates (Example 10); parameters: unit not given here; settings: microtitre plate, 48 hours at 37° C., ≦20% growth
Method in brief: as §3

[20] = system: Staphylococcus aureus ATCC 9144 (=SA); experiment: MIC in microtitre plates (Example 10); parameters: unit not given here; settings: microtitre plate, 48 hours at 37° C., ≦20% growth
Method in brief: as §3

[21] = system: Escherichia coli NCTC 8196 (=EC); experiment: MIC in microtitre plates (Example 10); parameters: unit not given here; settings: microtitre plate, 48 hours at 37° C., ≦20% growth
Method in brief: as §3

[22] = contact time 5 min, test substance 0.12%
[23] = contact time 5 min, test substance 120 ppm
[24] = contact time 30 min, test substance 0.12%
[25] = contact time 30 min, test substance 120 ppm

Compound: CCCCCCCCCCCCNc1cc(C)nc(-c2cccnc2)n1 [Compound of formula 36]
MIC (agar incorporation) Salmonella choleraesuis ATCC 9184 [1]: >120 | MIC (agar incorporation) Corynebacterium xerosis* ATCC 373 [2]: 60 | MIC (agar incorporation) Escherichia coli NCTC 8196 [3]: 120 | MIC (agar incorporation) Propionibacterium acnes (*) ATCC 6919 [4]: 60 | MIC (agar incorporation) Staphylococcus aureus ATCC 6538 [5]: 120 | MIC (agar incorporation) C. minutissimum ATCC 23348 [6]: 30 | MIC (agar incorporation) Candida albicans ATCC 10231 [7]: >120 | MIC (agar incorporation) Pseudomonas aeruginosa ATCC 15442 [8]: >120 | MIC (agar incorporation) Staphylococcus epidermidis ATCC 12228 [9]: >120 | MIC (agar incorporation) Klebsiella pneumoniae ATCC 4352 [10]: 60** | MIC (agar incorporation) Aspergillus niger ATCC 6275 [11]: >120 | MIC (agar incorporation) Staphylococcus aureus ATCC 9144 [12]: 120 | MIC (agar incorporation) Escherichia coli ATCC 10536 [13]: >120 | MIC (agar incorporation) Proteus vulgaris ATCC 6896 [14]: >120

Compound: CCCCCCCCCCCCNc1cc(C)nc(C)n1 [Compound of formula 89]
MIC (agar incorporation) Salmonella choleraesuis ATCC 9184 [1]: >120 | MIC (agar incorporation) Corynebacterium xerosis* ATCC 373 [2]: 3.75 | MIC (agar incorporation) Escherichia coli NCTC 8196 [3]: 120 | MIC (agar incorporation) Propionibacterium acnes (*) ATCC 6919 [4]: 3.75 | MIC (agar incorporation) Staphylococcus aureus ATCC 6538 [5]: 7.5 | MIC (agar incorporation) C. minutissimum ATCC 23348 [6]: 3.75 | MIC (agar incorporation) Candida albicans ATCC 10231 [7]: >120 | MIC (agar incorporation) Pseudomonas aeruginosa ATCC 15442 [8]: >120 | MIC (agar incorporation) Staphylococcus epidermidis ATCC 12228 [9]: 120 | MIC (agar incorporation) Klebsiella pneumoniae ATCC 4352 [10]: >120 | MIC (agar incorporation) Aspergillus niger ATCC 6275 [11]: >120 | MIC (agar incorporation) Staphylococcus aureus ATCC 9144 [12]: 7.5 | MIC (agar incorporation) Escherichia coli ATCC 10536 [13]: >120 | MIC (agar incorporation) Proteus vulgaris ATCC 6896 [14]: 60 | log reduction [15, 22]: 4.9 log | log reduction [15, 23]: 3.9 log | log reduction [15, 24]: >5 log | log reduction [15, 25]: 4.3 log | log reduction [16, 23]: <1 log | log reduction [16, 25]: 1.7 log | log reduction [17, 23]: 4.6 log | log reduction [17, 25]: >5 log

Compound: CCCCCCCCCCCCNc1cc(C)nc(C(C)C)n1 [Compound of formula 93, 4-dodecylamino-2-isopropyl-6-methylpyrimidine]
MIC (agar incorporation) Salmonella choleraesuis ATCC 9184 [1]: 120 | MIC (agar incorporation) Corynebacterium xerosis* ATCC 373 [2]: 1.88* | MIC (agar incorporation) Escherichia coli NCTC 8196 [3]: 120 | MIC (agar incorporation) Propionibacterium acnes (*) ATCC 6919 [4]: 3.75 (*) | MIC (agar incorporation) Staphylococcus aureus ATCC 6538 [5]: 3.75 | MIC (agar incorporation) C. minutissimum ATCC 23348 [6]: 1.88 | MIC (agar incorporation) Candida albicans ATCC 10231 [7]: >120 | MIC (agar incorporation) Pseudomonas aeruginosa ATCC 15442 [8]: >120 | MIC (agar incorporation) Staphylococcus epidermidis ATCC 12228 [9]: 3.75 | MIC (agar incorporation) Klebsiella pneumoniae ATCC 4352 [10]: 60 | MIC (agar incorporation) Aspergillus niger ATCC 6275 [11]: >120 | MIC (agar incorporation) Staphylococcus aureus ATCC 9144 [12]: 3.75 | MIC (agar incorporation) Escherichia coli ATCC 10536 [13]: 120 | MIC (agar incorporation) Proteus vulgaris ATCC 6896 [14]: >120 | log reduction [15, 22]: >5 log | log reduction [15, 23]: 2 log | log reduction [15, 24]: >5 log | log reduction [15, 25]: 4 log | log reduction [16, 22]: >5 log | log reduction [16, 23]: 1.4 log | log reduction [16, 24]: >5 log | log reduction [16, 25]: 3.8 log | log reduction [17, 22]: >5 log | log reduction [17, 23]: >5 log | log reduction [17, 24]: >5 log | log reduction [17, 25]: >5 log

Compound: CCCCC(CC)CNc1cc(C)nc(C)n1 (stereo not shown) [compound 135]
MIC PA [18]: >120 | MIC CA [19]: 30 | MIC SA [20]: 60 | MIC EC [21]: 120

Compound: CCCCC(CC)CNc1cc(C)nc(-c2ccc(C)cc2)n1 (stereo not shown) [compound 136]
MIC PA [18]: >120 | MIC CA [19]: 60 | MIC SA [20]: 7.5 | MIC EC [21]: >120

Compound: CCCCC(CC)CNc1cc(C)nc(C2CC2)n1 (stereo not shown) [compound 137]
MIC PA [18]: >120 | MIC CA [19]: 15 | MIC SA [20]: 15 | MIC EC [21]: 30

Compound: CCCCC(CC)CNc1cc(C)nc(C(C)C)n1 (stereo not shown) [compound 138]
MIC PA [18]: >120 | MIC CA [19]: 30 | MIC SA [20]: 30 | MIC EC [21]: 60

Compound: CCCCC(CC)CNc1cc(C)nc(-c2csc(C)n2)n1 (stereo not shown) [compound 139]
MIC PA [18]: >120 | MIC CA [19]: 30 | MIC SA [20]: 7.5 | MIC EC [21]: 60

Compound: CCCCC(CC)CNc1cc(C)nc(-c2ccc(C)c(F)c2)n1 (stereo not shown) [compound 140]
MIC PA [18]: >120 | MIC CA [19]: 120 | MIC SA [20]: 15 | MIC EC [21]: >120

Compound: Cc1cc(NC(C)CC(C)C)nc(C2CC2)n1 (stereo not shown) [compound 145]
MIC PA [18]: >120 | MIC CA [19]: 120 | MIC SA [20]: >120 | MIC EC [21]: >120

Compound: Cc1cc(NC(C)CC(C)C)nc(C(C)C)n1 (stereo not shown) [compound 146]
MIC PA [18]: >120 | MIC CA [19]: 120 | MIC SA [20]: >120 | MIC EC [21]: >120

The next lines start with the values.

MIC PA [18]: >120 | MIC CA [19]: >120 | MIC SA [20]: 120 | MIC EC [21]: >120
Compound: Cc1cc(NC(C)CC(C)C)nc(-c2ccccc2)n1 (stereo not shown) [compound 141]

MIC PA [18]: >120 | MIC CA [19]: 120 | MIC SA [20]: 30 | MIC EC [21]: >120
Compound: Cc1cc(NC(C)CC(C)C)nc(-c2ccncc2)n1 (stereo not shown) [compound 142]

MIC PA [18]: >120 | MIC CA [19]: 120 | MIC SA [20]: >120 | MIC EC [21]: >120
Compound: Cc1cc(NC(C)CC(C)C)nc(C)n1 (stereo not shown) [compound 143]

MIC PA [18]: >120 | MIC CA [19]: 120 | MIC SA [20]: 60 | MIC EC [21]: >120
Compound: Cc1ccc(-c2nc(C)cc(NC(C)CC(C)C)n2)cc1 (stereo not shown) [compound 144]

MIC PA [18]: >120 | MIC CA [19]: 120 | MIC SA [20]: 60 | MIC EC [21]: >120
Compound: Cc1cc(NC(C)CC(C)C)nc(-c2csc(C)n2)n1 (stereo not shown) [compound 147]

MIC PA [18]: >120 | MIC CA [19]: >120 | MIC SA [20]: 120 | MIC EC [21]: >120
Compound: Cc1cc(NC(C)CC(C)C)nc(-c2ccc(C)c(F)c2)n1 (stereo not shown) [compound 148]

Reference: patent US7731985B2, “4-aminopyrimidines and their use for the antimicrobial treatment of surfaces” (Ciba Specialty Chemicals Corporation, priority 2002, dated 2010)
